Test results reported in ChEMBL document CHEMBL1201862, “PubChem BioAssay data set” (2004).
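Cultured in 96-well plates, cells were exposed to test compound for 48 hours across five concentrations. GI50: concentration for 50% inhibition of growth.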 Active and inactive are the calls of the source. Cut-off read from the data, not from the text of the source: active = GI50 up to about 1.1 µM and inactive = higher.

What was measured:
Assay in all cases: growth of human tumour cells (NCI), 48 h
KM12 = system: KM12
OVCAR-8 = system: OVCAR-8
ACHN = system: ACHN
CAKI-1 = system: CAKI-1
OVCAR-5 = system: OVCAR-5
RPMI-8226 = system: RPMI-8226
SF-539 = system: SF-539
U-251 = system: U-251
HOP-62 = system: HOP-62
HCT-15 = system: HCT-15
M14 = system: M14
UACC-62 = system: UACC-62
SW-620 = system: SW-620
OVCAR-3 = system: OVCAR-3
EKVX = system: EKVX
SF-268 = system: SF-268
A549 = system: A549
NCI-H23 = system: NCI-H23
HCT-116 = system: HCT-116
MDA-MB-435 = system: MDA-MB-435
T47D = system: T47D
COLO 205 = system: COLO 205
NCI-H460 = system: NCI-H460
SK-MEL-5 = system: SK-MEL-5
HOP-92 = system: HOP-92
SNB-75 = system: SNB-75
IGROV-1 = system: IGROV-1
NCI-H522 = system: NCI-H522
MOLT-4 = system: MOLT-4
MCF7 = system: MCF7
OVCAR-4 = system: OVCAR-4
786-0 = system: 786-0
SN12C = system: SN12C
HT-29 = system: HT-29
BT-549 = system: BT-549
SR = system: SR
DU-145 = system: DU-145
RXF 393 = system: RXF 393
NCI/ADR-RES = system: NCI/ADR-RES
SK-MEL-28 = system: SK-MEL-28
NCI-H226 = system: NCI-H226
MDA-N = system: MDA-N
HCC 2998 = system: HCC 2998
SF-295 = system: SF-295
LOX IMVI = system: LOX IMVI
TK-10 = system: TK-10
SK-OV-3 = system: SK-OV-3
Malme-3M = system: Malme-3M
UO-31 = system: UO-31
PC-3 = system: PC-3
SNB-19 = system: SNB-19
HL-60 = system: HL-60
SK-MEL-2 = system: SK-MEL-2
UACC-257 = system: UACC-257
MDA-MB-231 = system: MDA-MB-231

Compound: NS(=O)(=O)c1ccc(CNc2nc(-c3cccs3)nc3ccc(I)cc23)cc1
- GI50 (KM12): 8.57 µM (inactive)
- GI50 (OVCAR-8): 18.4 µM (inactive)
- GI50 (ACHN): 18.4 µM (inactive)
- GI50 (CAKI-1): 6.15 µM (inactive)
- GI50 (OVCAR-5): 19.2 µM (inactive)
- GI50 (RPMI-8226): 18.6 µM (inactive)
- GI50 (SF-539): 11.2 µM (inactive)
- GI50 (U-251): 18.1 µM (inactive)
- GI50 (HOP-62): 21.4 µM (inactive)
- GI50 (HCT-15): 13.1 µM
- GI50 (M14): 15.1 µM (inactive)
- GI50 (UACC-62): 16.5 µM (inactive)
- GI50 (SW-620): 31.5 µM (inactive)
- GI50 (OVCAR-3): 11.2 µM (inactive)
- GI50 (EKVX): 3.85 µM (inactive)
- GI50 (SF-268): 23.1 µM (inactive)
- GI50 (A549): 12.5 µM (inactive)
- GI50 (NCI-H23): 17.9 µM (inactive)
- GI50 (HCT-116): 14.9 µM (inactive)
- GI50 (MDA-MB-435): 14.6 µM (inactive)
- GI50 (T47D): 0.222 µM (active)
- GI50 (COLO 205): 16.1 µM (inactive)
- GI50 (NCI-H460): 15 µM (inactive)
- GI50 (SK-MEL-5): 14.1 µM (inactive)
- GI50 (HOP-92): 16 µM (inactive)
- GI50 (SNB-75): 21.6 µM (inactive)
- GI50 (IGROV-1): 12.2 µM (inactive)
- GI50 (NCI-H522): 14.7 µM (inactive)
- GI50 (MOLT-4): 21.9 µM (inactive)
- GI50 (MCF7): 0.573 µM (active)
- GI50 (OVCAR-4): 10.7 µM (inactive)
- GI50 (786-0): 17.5 µM (inactive)
- GI50 (SN12C): 22.9 µM (inactive)
- GI50 (HT-29): 19.4 µM (inactive)
- GI50 (BT-549): 12.7 µM (inactive)
- GI50 (SR): 15 µM (inactive)
- GI50 (DU-145): 14.9 µM (inactive)
- GI50 (RXF 393): 19.6 µM (inactive)
- GI50 (NCI/ADR-RES): 26.2 µM (inactive)
- GI50 (SK-MEL-28): 21.3 µM (inactive)
- GI50 (NCI-H226): 17.9 µM (inactive)
- GI50 (MDA-N): 19.5 µM (inactive)
- GI50 (HCC 2998): 13.8 µM (inactive)
- GI50 (SF-295): 17.9 µM (inactive)
- GI50 (LOX IMVI): 14.8 µM (inactive)
- GI50 (TK-10): 9.16 µM (inactive)
- GI50 (SK-OV-3): 22.6 µM (inactive)
- GI50 (Malme-3M): 14.7 µM (inactive)
- GI50 (UO-31): 2.11 µM (inactive)
- GI50 (PC-3): 19.4 µM (inactive)
- GI50 (SNB-19): 17.4 µM (inactive)

Compound: O=C1NC(=O)/C(=C\c2ccncc2)N1
- GI50 (HL-60): > 10 µM (inactive)
- GI50 (KM12): > 100 µM (inactive)
- GI50 (OVCAR-8): > 100 µM (inactive)
- GI50 (SK-MEL-2): > 100 µM (inactive)
- GI50 (ACHN): > 100 µM (inactive)
- GI50 (CAKI-1): > 100 µM (inactive)
- GI50 (OVCAR-5): > 100 µM (inactive)
- GI50 (SF-539): > 100 µM (inactive)
- GI50 (U-251): > 100 µM (inactive)
- GI50 (HOP-62): > 100 µM (inactive)
- GI50 (HCT-15): > 100 µM
- GI50 (M14): > 100 µM (inactive)
- GI50 (SW-620): > 100 µM (inactive)
- GI50 (OVCAR-3): > 100 µM (inactive)
- GI50 (EKVX): > 100 µM (inactive)
- GI50 (A549): > 100 µM (inactive)
- GI50 (NCI-H23): > 100 µM (inactive)
- GI50 (HCT-116): > 100 µM (inactive)
- GI50 (MDA-MB-435): > 100 µM (inactive)
- GI50 (T47D): > 100 µM (inactive)
- GI50 (COLO 205): > 100 µM (inactive)
- GI50 (NCI-H460): > 100 µM (inactive)
- GI50 (SK-MEL-5): > 100 µM (inactive)
- GI50 (UACC-257): > 100 µM (inactive)
- GI50 (HOP-92): > 100 µM (inactive)
- GI50 (SNB-75): > 100 µM (inactive)
- GI50 (IGROV-1): > 100 µM (inactive)
- GI50 (MOLT-4): > 100 µM (inactive)
- GI50 (MCF7): > 100 µM (inactive)
- GI50 (OVCAR-4): > 100 µM (inactive)
- GI50 (786-0): > 100 µM (inactive)
- GI50 (SN12C): > 100 µM (inactive)
- GI50 (HT-29): > 100 µM (inactive)
- GI50 (BT-549): > 100 µM (inactive)
- GI50 (DU-145): > 100 µM (inactive)
- GI50 (MDA-MB-231): > 100 µM (inactive)
- GI50 (NCI/ADR-RES): > 100 µM (inactive)
- GI50 (SK-MEL-28): > 100 µM (inactive)
- GI50 (NCI-H226): > 100 µM (inactive)
- GI50 (MDA-N): > 100 µM (inactive)
- GI50 (HCC 2998): > 100 µM (inactive)
- GI50 (SF-295): > 100 µM (inactive)
- GI50 (LOX IMVI): > 100 µM (inactive)
- GI50 (TK-10): > 100 µM (inactive)
- GI50 (SK-OV-3): > 100 µM (inactive)
- GI50 (UO-31): > 100 µM (inactive)
- GI50 (PC-3): > 100 µM (inactive)
- GI50 (SNB-19): > 100 µM (inactive)
